# Test results as given in patent US20230414575A1, “MK2 ACTIVATING COMPOUNDS FOR USE IN TREATING VASCULAR LEAK AND ENDOTHELIAL BARRIER DISORDERS” (Akttyva Therapeutics, Inc., priority 2020, published 2023).
# What was measured:
# MK2 [1] = molecular target: T1, MK2 (Homo sapiens, UniProt P49137); experiment: ELISA MK2 cell-based activity assay (phospho-HSP-27), Malme-3M cells; settings: for Ratio to Control / Pho-HSP27: Malme-3M cells, compound 20 μM, 30 minutes, 37° C.; for Pho-HSP27: phospho-HSP27 ELISA; for response in phospho-HSP27 ELISA, overall ranking: overall statement on compounds tested at 20 μM (Malme-3M and RMVEC cells)
# T1 construct: endogenous in cells; host or cells: Malme-3M
# Protocol: (§1) The MK2 activator candidates, identified using the artificial intelligence (AI)-assisted docking approach, were tested in activity assays for lead selection against the MK2 target. MK2 activation was assessed using (a) a cell-based assay using rat microvascular endothelial cells (RMVEC) and (b) human cancer skin fibroblast cells (Malme-3M). In both assays, an Enzyme-linked ImmunoSorbent Assay (ELISA) technique was used to measure (HSP-27) phosphorylation (DYC2314-2, R&D Systems). Both cell lines were grown to confluency in a 96-well tissue culture plate and treated at 37° C. for 30 minutes with the test compounds at concentrations of 20 μM. The cells were subsequently lysed with a lysis solution containing 0.5% Triton X-100 and anti-proteolysis agents. The resulting lysates were then loaded onto ELISA plates coated with anti-rat phospho-HSP27. After incubation and washing, the plates were treated with an horseradish peroxidase (HRP)-conjugated anti-phospho-HSP27 secondary antibody and then measured for chemiluminescence. Higher activity compounds, acting on MK2, induced higher levels of HSP-27 phosphorylation, as measured by the ELISA.
# MK2 [2] = molecular target: T2, MK2 (Rattus norvegicus, UniProt Q80ZF4); experiment: ELISA MK2 cell-based activity assay (phospho-HSP-27), RMVEC cells; settings: compound 20 μM, 30 minutes, 37° C.; for Average Response HSP27: phospho-HSP27 ELISA
# T2 construct: endogenous in cells; host or cells: rat microvascular endothelial cells (RMVEC)
# Protocol: as §1
# MK2 [3] = molecular target: T2, MK2; experiment: Western blot of HSP-27 phosphorylation in rat microvascular endothelial cells; type: cell-based; settings: 20 μM, 30 minutes, 37° C., of five compounds tested
# Protocol: In order to assess the functional activity of the putative MK2 binding activators, a series of these compounds (i.e., Leflunomide, Netupitant, Paliperidone, Lomitapide, and Perospirone) were analyzed by Western blot analysis. Rat microvascular endothelial cells were grown to confluency in 35 mm tissue culture dishes. The cells were treated with or without the putative MK2 binding activators at 20 μM concentration for 30 minutes at 37° C. As a positive control, one of the cell dishes was exposed to UV light for ca. 10 minutes. […] The membrane was washed, treated with a chemiluminescence substrate, and digitally imaged followed by quantification by densitometry. The intensity of detected signal was proportional to the MK2 activation potency of the tested compound.
# Western blot results from the compounds analyzed by the above-described method are provided in FIG. 1 and graphically as a histogram plot in FIG. 2, after normalization for HSP-27 signal.
# The two bands seen in each lane of the blots represent monomeric and dimeric forms of both phosphorylated and unphosphorylated HSP-27. The intensity of the bands was quantified by densitometry and then each raw readout was normalized by the signal intensity of unphosphorylated HSP-27, in order to correct for any differences in lysate load across the various treatment conditions.
# T2 sequence (Q80ZF4 1-386): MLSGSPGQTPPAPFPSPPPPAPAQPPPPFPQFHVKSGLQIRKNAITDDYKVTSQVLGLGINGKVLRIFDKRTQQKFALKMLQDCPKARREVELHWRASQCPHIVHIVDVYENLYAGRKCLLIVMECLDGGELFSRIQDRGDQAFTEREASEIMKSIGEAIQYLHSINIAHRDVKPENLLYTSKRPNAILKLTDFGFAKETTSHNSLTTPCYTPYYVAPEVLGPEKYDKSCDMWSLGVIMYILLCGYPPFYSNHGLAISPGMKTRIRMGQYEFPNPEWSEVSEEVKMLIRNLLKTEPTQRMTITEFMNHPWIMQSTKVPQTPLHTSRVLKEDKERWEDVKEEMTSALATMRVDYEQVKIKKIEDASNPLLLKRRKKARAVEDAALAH
# T1 sequence (P49137 whole entry): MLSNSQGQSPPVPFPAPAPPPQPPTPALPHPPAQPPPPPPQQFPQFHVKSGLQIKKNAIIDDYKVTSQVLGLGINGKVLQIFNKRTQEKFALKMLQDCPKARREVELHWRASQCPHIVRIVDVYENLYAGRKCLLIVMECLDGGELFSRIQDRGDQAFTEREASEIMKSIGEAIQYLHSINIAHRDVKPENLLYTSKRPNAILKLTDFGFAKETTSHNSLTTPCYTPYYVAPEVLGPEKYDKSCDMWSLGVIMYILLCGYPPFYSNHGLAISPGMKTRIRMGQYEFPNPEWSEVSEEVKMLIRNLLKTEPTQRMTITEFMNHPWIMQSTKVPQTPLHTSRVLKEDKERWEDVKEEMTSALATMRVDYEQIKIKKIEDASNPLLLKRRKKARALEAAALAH
SMILES,Ratio to Control (MK2 [1]),Pho-HSP27 (MK2 [1]) [pg/mL],"response in phospho-HSP27 ELISA, overall ranking (MK2 [1])",Ratio Compound/control (MK2 [2]),Average Response HSP27 (MK2 [2]) [pg/mL],"increase in HSP-27 phosphorylation (Western blot, normalized for HSP-27 signal) (MK2 [3])"
"Fc1ccccc1-c1nc2ccn(Cc3ccc(-c4ccc(C(F)(F)F)cc4C(F)(F)F)nn3)cc-2n1 [Compound 66, Tegobuvir]",0.9,20.9,–,1.2,26.2,–
"O=C(NC1CCN(CCCCC2(C(=O)NCC(F)(F)F)c3ccccc3-c3ccccc32)CC1)c1ccccc1-c1ccc(C(F)(F)F)cc1 [Compound 68, Lomitapide]",37.7,848.5,most robust response,3.4,39.2,strongest increase in HSP-27 phosphorylation
"O=C(Nc1ccc(-c2ccnc(Nc3ccc(N4CCOCC4)cc3)n2)cc1)C1CCCN1 (centres unmarked) [Compound 78, Xl-019]",0.7,15.0,–,0.6,15.2,–
"O=C(O)CCn1c2c(c3ccccc31)C[C@H](NS(=O)(=O)c1ccc(F)cc1)CC2 [Compound 93, Ramatroban]",1.5,33.2,–,1.3,27.6,–
OC[C@@H](O)CN1CCN(c2ccccc2)CC1 [Levodropropizine],27.6,621.3,most robust response,2.3,47.1,–

# The next lines start with results.
Ratio to Control (MK2 [1]),Pho-HSP27 (MK2 [1]) [pg/mL],"response in phospho-HSP27 ELISA, overall ranking (MK2 [1])",Ratio Compound/control (MK2 [2]),Average Response HSP27 (MK2 [2]) [pg/mL],SMILES,"increase in HSP-27 phosphorylation (Western blot, normalized for HSP-27 signal) (MK2 [3])"
37.2,836.0,most robust response,2.3,48.4,"CN(C)Cc1c(C(=O)NCCOc2ccc(C(=O)NO)cc2)oc2ccccc12 [Compound 54, Abexinostat]",–
0.7,15.2,–,1.2,20.4,"Cc1cc(C(=O)Nc2cc(Nc3ccc4c(/C=C/c5ccccn5)n[nH]c4c3)ccc2F)n(C)n1 [Compound 74, Ag-13958]",–
1.3,29.9,–,2.1,33.7,"CC(=O)Nc1nc2c(Oc3cc(-c4ccc(C(F)(F)F)cc4)ncn3)cccc2s1 [Compound 83, Amg-517]",–
1.1,24.1,–,0.8,18.6,"O=C(O)c1ccc2nc(-c3cc(Cl)cc(Cl)c3)oc2c1 [Compound 95, Tafamidis]",–
1.2,26.2,–,1.2,26.5,"COc1ccc(-c2cc(C(F)F)nn2-c2ccc(S(N)(=O)=O)cc2)cc1F [Compound 113, Deracoxib]",–
